Results: US9801889B2, “Bicyclic heterocycles as FGFR4 inhibitors” (Incyte Corporation, priority 2015, dated 2017)

Tests used:
Conditions in all cases: IC50 ratio showing FGFR4 selectivity
FGFR2 = FGFR2 (Homo sapiens (Human), UniProt P21802); test: FGFR Enzymatic Assay (FRET peptide phosphorylation), FGFR2
From the text: (§1) The enzymes were purchased from Millipore or Invitrogen.
(§2) GraphPad prism3 was used to analyze the data. The IC50 values were derived by fitting the data to the equation for a sigmoidal dose-response with a variable slope. Y=Bottom+(Top-Bottom)/(1+10^((LogIC50-X)*HillSlope)) where X is the logarithm of concentration and Y is the response.

FGFR1 = FGFR1 (Homo sapiens (Human), UniProt P11362); test: FGFR Enzymatic Assay (FRET peptide phosphorylation), FGFR1
From the text: as §1, §2

FGFR3 = FGFR3 (Homo sapiens (Human), UniProt P22607); test: FGFR Enzymatic Assay (FRET peptide phosphorylation), FGFR3
Sequence of FGFR3 (P22607 23-806): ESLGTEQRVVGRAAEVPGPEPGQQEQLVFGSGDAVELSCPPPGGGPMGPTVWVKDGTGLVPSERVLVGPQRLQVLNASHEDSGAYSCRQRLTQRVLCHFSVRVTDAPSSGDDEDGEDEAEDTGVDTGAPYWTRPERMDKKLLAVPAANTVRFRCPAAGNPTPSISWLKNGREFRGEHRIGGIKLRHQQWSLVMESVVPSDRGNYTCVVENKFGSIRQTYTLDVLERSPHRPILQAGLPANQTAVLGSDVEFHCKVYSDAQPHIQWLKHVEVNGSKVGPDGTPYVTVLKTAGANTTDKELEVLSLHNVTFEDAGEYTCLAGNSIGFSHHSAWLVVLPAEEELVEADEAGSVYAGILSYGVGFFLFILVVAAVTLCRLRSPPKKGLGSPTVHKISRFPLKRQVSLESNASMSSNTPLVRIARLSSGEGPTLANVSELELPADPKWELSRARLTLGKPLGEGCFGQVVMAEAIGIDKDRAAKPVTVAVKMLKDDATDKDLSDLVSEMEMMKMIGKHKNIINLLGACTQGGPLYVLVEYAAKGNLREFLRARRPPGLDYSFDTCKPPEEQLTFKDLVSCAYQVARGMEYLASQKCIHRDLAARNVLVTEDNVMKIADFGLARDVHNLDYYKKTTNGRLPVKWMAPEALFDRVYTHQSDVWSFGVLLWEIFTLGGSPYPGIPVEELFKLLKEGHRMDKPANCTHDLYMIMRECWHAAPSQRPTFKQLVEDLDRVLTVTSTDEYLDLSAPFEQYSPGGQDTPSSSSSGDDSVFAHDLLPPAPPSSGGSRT
From the text: as §1, §2

[1] = pre-incubated for 5 to 10 minutes

Sequence of FGFR2 (P21802 22-821): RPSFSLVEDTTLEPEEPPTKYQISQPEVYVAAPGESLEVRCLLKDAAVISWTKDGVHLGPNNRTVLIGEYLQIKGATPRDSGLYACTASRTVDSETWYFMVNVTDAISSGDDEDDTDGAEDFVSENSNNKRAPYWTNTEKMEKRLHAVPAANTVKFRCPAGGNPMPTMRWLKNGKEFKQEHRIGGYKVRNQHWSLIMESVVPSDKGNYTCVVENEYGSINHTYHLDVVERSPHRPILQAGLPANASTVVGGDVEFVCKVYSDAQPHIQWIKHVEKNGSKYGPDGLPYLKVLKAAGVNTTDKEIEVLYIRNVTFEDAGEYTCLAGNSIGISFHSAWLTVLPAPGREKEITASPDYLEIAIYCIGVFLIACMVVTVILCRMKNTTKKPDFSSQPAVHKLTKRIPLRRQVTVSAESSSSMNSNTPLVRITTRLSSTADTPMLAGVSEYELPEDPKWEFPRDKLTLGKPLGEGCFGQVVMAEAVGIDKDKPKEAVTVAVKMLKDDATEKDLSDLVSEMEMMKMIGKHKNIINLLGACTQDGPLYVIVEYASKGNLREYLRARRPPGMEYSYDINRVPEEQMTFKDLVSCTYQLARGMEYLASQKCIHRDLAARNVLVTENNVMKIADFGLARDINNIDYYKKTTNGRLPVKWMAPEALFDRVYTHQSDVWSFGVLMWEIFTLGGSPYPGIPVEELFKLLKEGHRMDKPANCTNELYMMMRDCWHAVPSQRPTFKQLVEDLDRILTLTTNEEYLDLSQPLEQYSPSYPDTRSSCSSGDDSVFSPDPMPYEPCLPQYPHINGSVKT
Sequence of FGFR1 (P11362 22-822): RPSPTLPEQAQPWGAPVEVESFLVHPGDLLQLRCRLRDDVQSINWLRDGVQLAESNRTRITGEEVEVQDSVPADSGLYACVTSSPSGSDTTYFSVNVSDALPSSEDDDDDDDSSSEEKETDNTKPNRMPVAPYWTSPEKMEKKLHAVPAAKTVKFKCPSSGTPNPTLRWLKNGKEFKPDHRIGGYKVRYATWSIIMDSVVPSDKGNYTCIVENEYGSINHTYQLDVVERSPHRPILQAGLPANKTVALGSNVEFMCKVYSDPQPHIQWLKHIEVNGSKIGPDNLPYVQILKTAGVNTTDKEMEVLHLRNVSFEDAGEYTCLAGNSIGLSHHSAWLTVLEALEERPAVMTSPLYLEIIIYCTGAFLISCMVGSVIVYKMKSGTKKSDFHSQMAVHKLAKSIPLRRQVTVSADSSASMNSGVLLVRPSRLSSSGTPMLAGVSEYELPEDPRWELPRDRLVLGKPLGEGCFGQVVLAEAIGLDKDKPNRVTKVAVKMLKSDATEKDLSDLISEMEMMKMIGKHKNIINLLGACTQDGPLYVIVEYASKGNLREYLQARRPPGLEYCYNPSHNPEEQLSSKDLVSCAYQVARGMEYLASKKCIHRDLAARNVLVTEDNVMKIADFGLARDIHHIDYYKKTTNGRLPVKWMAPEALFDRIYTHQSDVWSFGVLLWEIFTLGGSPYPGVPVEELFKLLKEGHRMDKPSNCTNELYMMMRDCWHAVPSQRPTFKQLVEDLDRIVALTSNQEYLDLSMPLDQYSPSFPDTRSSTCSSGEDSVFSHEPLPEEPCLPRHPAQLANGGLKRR

| Compound | FGFR2/FGFR4 (FGFR2; [1]) | FGFR2/FGFR4 (FGFR2; pre-incubated for 4 hours) | FGFR1/FGFR4 (FGFR1; [1]) | FGFR1/FGFR4 (FGFR1; pre-incubated for 4 hours) | FGFR3/FGFR4 (FGFR3; [1]) | FGFR3/FGFR4 (FGFR3; pre-incubated for 4 hours) |
| --- | --- | --- | --- | --- | --- | --- |
| C=CC(=O)Nc1ccc(C)c(-c2cc3c(cn2)CN(c2c(F)c(OC)cc(OC)c2F)C(=O)C32CC2)c1 [Example 2, N-(3-(2′-(2,6-difluoro-3,5-dimethoxyphenyl)-3′-oxo-2′,3′-dihydro-1′H-spiro[cyclopropane-1,4′-[2,7]naphthyridine]-6′-yl)-4-methylphenyl)acrylamide] | >100 | >100 | >100 | >100 | >100 | >100 |
| C=CC(=O)Nc1ccc(C#N)c(-c2cc3c(cn2)CN(c2c(F)c(OC)cc(OC)c2F)C(=O)C32CC2)c1 [Example 5, N-(4-cyano-3-(2′-(2,6-difluoro-3,5-dimethoxyphenyl)-3′-oxo-2′,3′-dihydro-1′H-spiro[cyclopropane-1,4′-[2,7]naphthyridine]-6′-yl)phenyl)acrylamide] | >100 | >100 | >100 | >100 | >100 | >100 |
| C=CC(=O)Nc1cc(-c2cc3c(cn2)CN(c2c(F)c(OC)cc(OC)c2F)C(=O)C32CC2)c(C)cc1F [Example 6, N-(5-(2′-(2,6-difluoro-3,5-dimethoxyphenyl)-3′-oxo-2′,3′-dihydro-1′H-spiro[cyclopropane-1,4′-[2,7]naphthyridine]-6′-yl)-2-fluoro-4-methylphenyl)acrylamide] | >100 | >100 | >100 | >100 | >100 | >100 |
| C=CC(=O)Nc1cnc(C)c(-c2cc3c(cn2)CN(c2c(F)c(OC)cc(OC)c2F)C(=O)C32CC2)c1 [Example 7, N-(5-(2′-(2,6-difluoro-3,5-dimethoxyphenyl)-3′-oxo-2′,3′-dihydro-1′H-spiro[cyclopropane-1,4′-[2,7]naphthyridine]-6′-yl)-6-methylpyridin-3-yl)acrylamide] | >100 | >100 | >100 | >100 | >100 | >100 |
| C=CC(=O)N1CCCC(c2cc3c(cn2)CN(c2c(F)c(OC)cc(OC)c2F)C(=O)C32CC2)C1 (stereo not drawn) [Example 8, 6′-(1-acryloylpiperidin-3-yl)-2′-(2,6-difluoro-3,5-dimethoxyphenyl)-1′H-spiro[cyclopropane-1,4′-[2,7]naphthyridin]-3′(2′H)-one] | >1 | >2 | >5 | >10 | >1 | >2 |
| C=CC(=O)Nc1cc(-c2cc3c(cn2)CN(c2c(F)c(OC)cc(OC)c2F)C(=O)C32CC2)cc(N2CCOCC2)c1 [Example 10, N-{3-[2′-(2,6-difluoro-3,5-dimethoxyphenyl)-3′-oxo-2′,3′-dihydro-1′H-spiro[cyclopropane-1,4′-[2,7]naphthyridin]-6′-yl]-5-morpholin-4-ylphenyl}acrylamide] | >100 | >100 | >100 | >100 | >100 | >100 |
| C=CC(=O)Nc1cc(CN2CCOCC2)cc(-c2cc3c(cn2)CN(c2c(F)c(OC)cc(OC)c2F)C(=O)C32CC2)c1 [Example 11, N-[3-[2′-(2,6-difluoro-3,5-dimethoxyphenyl)-3′-oxo-2′,3′-dihydro-1′H-spiro[cyclopropane-1,4′-[2,7]naphthyridin]-6′-yl]-5-(morpholin-4-ylmethyl)phenyl]acrylamide] | >100 | >100 | >100 | >100 | >100 | >100 |
| C=CC(=O)Nc1cc(-c2cc3c(cn2)CN(c2c(F)c(OC)cc(OC)c2F)C(=O)C32CC2)ccc1CN1CCOCC1 [Example 12, N-(5-(2′-(2,6-difluoro-3,5-dimethoxyphenyl)-3′-oxo-2′,3′-dihydro-1′H-spiro[cyclopropane-1,4′-[2,7]naphthyridine]-6′-yl)-2-(morpholinomethyl)phenyl)acrylamide] | >1 | >25 | >10 | >100 | >1 | >10 |
| C=CC(=O)Nc1cn[nH]c1-c1cc2c(cn1)CN(c1c(F)c(OC)cc(OC)c1F)C(=O)C21CC1 [Example 14, N-(5-(2′-(2,6-difluoro-3,5-dimethoxyphenyl)-3′-oxo-2′,3′-dihydro-1′H-spiro[cyclopropane-1,4′-[2,7]naphthyridine]-6′-yl)-1H-pyrazol-4-yl)acrylamide] | – | >100 | – | >100 | – | >100 |
| C=CC(=O)Nc1cnn(CCOC)c1-c1cc2c(cn1)CN(c1c(F)c(OC)cc(OC)c1F)C(=O)C21CC1 [Example 15, N-(5-(2′-(2,6-difluoro-3,5-dimethoxyphenyl)-3′-oxo-2′,3′-dihydro-1′H-spiro[cyclopropane-1,4′-[2,7]naphthyridine]-6′-yl)-1-(2-methoxyethyl)-1H-pyrazol-4-yl)acrylamide] | – | >100 | – | >100 | – | >100 |
| C=CC(=O)Nc1cnn(CCOCC)c1-c1cc2c(cn1)CN(c1c(F)c(OC)cc(OC)c1F)C(=O)C21CC1 [Example 16, N-(5-(2′-(2,6-difluoro-3,5-dimethoxyphenyl)-3′-oxo-2′,3′-dihydro-1′H-spiro[cyclopropane-1,4′-[2,7]naphthyridine]-6′-yl)-1-(2-ethoxyethyl)-1H-pyrazol-4-yl)acrylamide] | – | >100 | – | >100 | – | >100 |
| C=CC(=O)Nc1cnn(CCO)c1-c1cc2c(cn1)CN(c1c(F)c(OC)cc(OC)c1F)C(=O)C21CC1 [Example 17, N-(5-(2′-(2,6-difluoro-3,5-dimethoxyphenyl)-3′-oxo-2′,3′-dihydro-1′H-spiro[cyclopropane-1,4′-[2,7]naphthyridine]-6′-yl)-1-(2-hydroxyethyl)-1H-pyrazol-4-yl)acrylamide] | – | >100 | – | >100 | – | >100 |
| C=CC(=O)Nc1cnn(C2CCOCC2)c1-c1cc2c(cn1)CN(c1c(F)c(OC)cc(OC)c1F)C(=O)C21CC1 [Example 18, N-(5-(2′-(2,6-difluoro-3,5-dimethoxyphenyl)-3′-oxo-2′,3′-dihydro-1′H-spiro[cyclopropane-1,4′-[2,7]naphthyridine]-6′-yl)-1-(tetrahydro-2H-pyran-4-yl)-1H-pyrazol-4-yl)acrylamide] | – | >50 | – | >100 | – | >100 |
| C=CC(=O)Nc1cnn(CCN2CCOCC2)c1-c1cc2c(cn1)CN(c1c(F)c(OC)cc(OC)c1F)C(=O)C21CC1 [Example 19, N-(5-(2′-(2,6-difluoro-3,5-dimethoxyphenyl)-3′-oxo-2′,3′-dihydro-1′H-spiro[cyclopropane-1,4′-[2,7]naphthyridine]-6′-yl)-1-(2-morpholinoethyl)-1H-pyrazol-4-yl)acrylamide] | – | >100 | – | >100 | – | >100 |
| C=CC(=O)Nc1cnn(Cc2ccncc2)c1-c1cc2c(cn1)CN(c1c(F)c(OC)cc(OC)c1F)C(=O)C21CC1 [Example 21, N-(5-(2′-(2,6-difluoro-3,5-dimethoxyphenyl)-3′-oxo-2′,3′-dihydro-1′H-spiro[cyclopropane-1,4′-[2,7]naphthyridine]-6′-yl)-1-(pyridin-4-ylmethyl)-1H-pyrazol-4-yl)acrylamide] | – | >50 | – | >100 | – | >100 |
| C=CC(=O)Nc1cnn(Cc2cccnc2)c1-c1cc2c(cn1)CN(c1c(F)c(OC)cc(OC)c1F)C(=O)C21CC1 [Example 22, N-(5-(2′-(2,6-difluoro-3,5-dimethoxyphenyl)-3′-oxo-2′,3′-dihydro-1′H-spiro[cyclopropane-1,4′-[2,7]naphthyridine]-6′-yl)-1-(pyridin-3-ylmethyl)-1H-pyrazol-4-yl)acrylamide] | – | >100 | – | >100 | – | >100 |
| C=CC(=O)Nc1cnn(Cc2ncn(C)n2)c1-c1cc2c(cn1)CN(c1c(F)c(OC)cc(OC)c1F)C(=O)C21CC1 [Example 23, N-(5-(2′-(2,6-difluoro-3,5-dimethoxyphenyl)-3′-oxo-2′,3′-dihydro-1′H-spiro[cyclopropane-1,4′-[2,7]naphthyridine]-6′-yl)-1-((1-methyl-1H-1,2,4-triazol-3-yl)methyl)-1H-pyrazol-4-yl)acrylamide] | – | >100 | – | >100 | – | >100 |
| C=CC(=O)Nc1cnn(CC2CCOCC2)c1-c1cc2c(cn1)CN(c1c(F)c(OC)cc(OC)c1F)C(=O)C21CC1 [Example 24, N-(5-(2′-(2,6-difluoro-3,5-dimethoxyphenyl)-3′-oxo-2′,3′-dihydro-1′H-spiro[cyclopropane-1,4′-[2,7]naphthyridine]-6′-yl)-1-((tetrahydro-2H-pyran-4-yl)methyl)-1H-pyrazol-4-yl)acrylamide] | – | >100 | – | >100 | – | >100 |
| C=CC(=O)Nc1cnn(Cc2ccon2)c1-c1cc2c(cn1)CN(c1c(F)c(OC)cc(OC)c1F)C(=O)C21CC1 [Example 25, N-(5-(2′-(2,6-difluoro-3,5-dimethoxyphenyl)-3′-oxo-2′,3′-dihydro-1′H-spiro[cyclopropane-1,4′-[2,7]naphthyridine]-6′-yl)-1-(isoxazol-3-ylmethyl)-1H-pyrazol-4-yl)acrylamide] | – | >100 | – | >100 | – | >100 |
